Biological target: T1, HDAC6 enzyme (Homo sapiens, UniProt Q9UBN7)
T1 construct: transducing full length HDAC6 gene into Sf-9 insect cells; GST; purchased SignalChem; host or cells: Sf-9 insect cells
T1 sequence (Q9UBN7 1-1215): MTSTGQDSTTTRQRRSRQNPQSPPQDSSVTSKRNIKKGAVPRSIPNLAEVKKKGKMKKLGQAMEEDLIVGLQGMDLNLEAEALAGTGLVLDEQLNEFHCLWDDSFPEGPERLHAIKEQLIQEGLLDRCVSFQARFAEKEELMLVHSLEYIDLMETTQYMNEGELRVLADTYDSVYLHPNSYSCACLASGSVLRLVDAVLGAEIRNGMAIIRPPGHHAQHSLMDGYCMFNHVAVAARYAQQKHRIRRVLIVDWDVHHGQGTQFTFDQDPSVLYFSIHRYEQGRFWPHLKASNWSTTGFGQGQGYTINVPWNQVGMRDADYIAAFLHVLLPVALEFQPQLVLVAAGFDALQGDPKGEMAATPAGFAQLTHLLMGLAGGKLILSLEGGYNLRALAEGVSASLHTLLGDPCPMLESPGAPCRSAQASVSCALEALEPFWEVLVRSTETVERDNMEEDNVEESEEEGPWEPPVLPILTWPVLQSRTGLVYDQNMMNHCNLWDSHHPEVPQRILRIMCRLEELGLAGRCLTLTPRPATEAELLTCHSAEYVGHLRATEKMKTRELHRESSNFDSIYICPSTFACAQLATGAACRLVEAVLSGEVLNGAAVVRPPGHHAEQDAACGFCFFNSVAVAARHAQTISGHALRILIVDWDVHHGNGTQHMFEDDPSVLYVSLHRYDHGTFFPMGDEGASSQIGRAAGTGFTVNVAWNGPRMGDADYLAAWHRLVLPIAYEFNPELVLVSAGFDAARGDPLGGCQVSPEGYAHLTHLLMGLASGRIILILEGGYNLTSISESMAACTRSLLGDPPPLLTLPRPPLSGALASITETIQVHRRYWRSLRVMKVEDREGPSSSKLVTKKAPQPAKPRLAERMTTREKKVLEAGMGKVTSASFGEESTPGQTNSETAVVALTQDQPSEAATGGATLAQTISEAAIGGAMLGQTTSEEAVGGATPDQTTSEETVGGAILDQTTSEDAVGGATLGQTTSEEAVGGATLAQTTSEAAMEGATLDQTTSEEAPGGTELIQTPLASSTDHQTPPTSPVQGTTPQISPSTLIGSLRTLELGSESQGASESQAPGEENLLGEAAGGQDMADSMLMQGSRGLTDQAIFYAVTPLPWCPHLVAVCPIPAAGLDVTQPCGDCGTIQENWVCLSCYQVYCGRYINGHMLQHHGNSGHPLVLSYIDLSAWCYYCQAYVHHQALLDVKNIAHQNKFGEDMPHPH
Experiment: HDAC6 enzyme inhibitory activity (HDAC-Glo I/II Assay kit)
Type: biochemical
Settings: 10 μM; wells without enzyme = 100% inhibition; read-out: HDAC6 inhibitory rate (%) (10 μM)
How it was run: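 Full-length human HDAC6 (GST-purified, Sf-9 expressed) preincubated with compound 60 min at room temperature in Tris-HCl pH 7.5 buffer with MgCl2, KCl, NaCl, glutathione, Tween-20. HDAC-Glo I/II substrate-developer then added, 20 min room temperature, luminescence read. Inhibition relative to no-enzyme wells as 100%.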

inhibition at 10 µM [%]	SMILES
99	CCOc1cc(-c2ccccc2N2Cc3ccc(-c4nnc(C(F)F)o4)cc3C2=O)ccn1 [Example 290, 6-(5-(difluoromethyl)-1,3,4-oxadiazol-2-yl)-2-(2-(2-ethoxypyridin-4-yl)-phenyl)isoindolin-1-one]
98	CCOc1cnccc1-c1ccccc1N1Cc2ccc(-c3nnc(C(F)F)o3)cc2C1=O [Example 291, 6-(5-(difluoromethyl)-1,3,4-oxadiazol-2-yl)-2-(2-(3-ethoxypyridin-4-yl)-phenyl)isoindolin-1-one]
97	O=C1c2cc(-c3nnc(C(F)F)o3)ccc2CN1c1ccccc1-c1ccc(C(F)F)cc1 [Example 292, 2-(4′-(difluoromethyl)-biphenyl-2-yl)-6-(5-(difluoromethyl)-1,3,4-oxadiazol-2-yl)isoindolin-1-one]
100	O=C1c2cc(-c3nnc(C(F)F)o3)ccc2CN1c1ccccc1-c1cccc(C(F)F)c1 [Example 293, 2-(3′-(difluoromethyl)-biphenyl-2-yl)-6-(5-(difluoromethyl)-1,3,4-oxadiazol-2-yl)isoindolin-1-one]
100	CC(C)Oc1cc(-c2ccccc2N2Cc3ccc(-c4nnc(C(F)F)o4)cc3C2=O)ccn1 [Example 294, 6-(5-(difluoromethyl)-1,3,4-oxadiazol-2-yl)-2-(2-(2-isopropoxypyridin-4-yl)phenyl)isoindolin-1-one]
102	COc1ncc(Cl)cc1-c1ccccc1N1Cc2ccc(-c3nnc(C(F)F)o3)cc2C1=O [Example 295, 2-(2-(5-chloro-2-methoxy-pyridin-3-yl)phenyl)-6-(5-(difluoromethyl)-1,3,4-oxadiazol-2-yl)isoindolin-1-one]
101	O=C1c2cc(-c3nnc(C(F)F)o3)ccc2CN1c1ccccc1-c1cccc(OC(F)F)c1 [Example 296, 2-(3′(difluoromethoxy)-biphenyl-2-yl)-6-(5-(difluoromethyl)-1,3,4-oxadiazol-2-yl)isoindolin-1-one]
98	O=C1c2cc(-c3nnc(C(F)F)o3)ccc2CN1c1ccccc1-c1cncc(C(F)(F)F)c1 [Example 297, 6-(5-(difluoromethyl)-1,3,4-oxadiazol-2-yl)-2-(2-(5-(trifluoromethyl)pyridin-3-yl)phenyl)isoindolin-1-one]
100	O=C1c2cc(-c3nnc(C(F)F)o3)ccc2CN1c1ccccc1-c1ccccc1OC(F)(F)F [Example 298, 6-(5-(difluoromethyl)-1,3,4-oxadiazol-2-yl)-2-(2′-(trifluoromethoxy)biphenyl-2-yl)isoindolin-1-one]
94	O=C1c2cc(-c3nnc(C(F)F)o3)ccc2CN1c1ccccc1-c1ccc(OC(F)(F)F)cc1 [Example 299, 6-(5-(difluoromethyl)-1,3,4-oxadiazol-2-yl)-2-(4′-(trifluoromethoxy)biphenyl-2-yl)isoindolin-1-one]
97	O=C1c2cc(-c3nnc(C(F)F)o3)ccc2CN1c1ccccc1-c1cccc(OC(F)(F)F)c1 [Example 300, 6-(5-(difluoromethyl)-1,3,4-oxadiazol-2-yl)-2-(3′-(trifluoromethoxy)biphenyl-2-yl)isoindolin-1-one]

Further lines, the compound ahead of its results:

SMILES	inhibition at 10 µM [%]
O=C1c2cc(-c3nnc(C(F)F)o3)cnc2CN1Cc1cccc(F)c1 [Example 273, 3-(5-(difluoromethyl)-1,3,4-oxadiazol-2-yl)-6-(3-fluorobenzyl)-6,7-dihydro-5H-pyrrolo[3,4-b]pyridin-5-one]	97
O=C1c2cc(-c3nnc(C(F)F)o3)cc(F)c2CN1C[C@H]1CCCN1S(=O)(=O)C1CC1 [Example 274, 2-(((2R)-1-(cyclopropyl-sulfonyl)pyrrolidin-2-yl)methyl)-6-(5-(difluoro-methyl)-1,3,4-oxadiazol-2-yl)-4-fluoroisoindolin-1-one]	99
CC(C)(C)OC(=O)N1CCC[C@H]1CN1Cc2c(F)cc(-c3nnc(C(F)F)o3)cc2C1=O [Example 275, tert-butyl (2S)-2-((6-(5-(difluoromethyl)-1,3,4-oxadiazol-2-yl)-4-fluoro-1-oxo-1,3-dihydro-2H-isoindol-2-yl)methyl)-pyrrolidine-1-carboxylate]	98
O=C1c2cc(-c3nnc(C(F)F)o3)ccc2CN1c1ccccc1-c1ccc(F)cc1 [Example 276, 6-(5-(difluoromethyl)-1,3,4-oxadiazol-2-yl)-2-(4′-fluorobiphenyl-2-yl)-isoindolin-1-one]	98
O=C1c2cc(-c3nnc(C(F)F)o3)ccc2CN1c1ccccc1-c1ccccc1F [Example 277, 6-(5-(difluoromethyl)-1,3,4-oxadiazol-2-yl)-2-(2'-fluorobiphenyl-2-yl)isoindolin-1-one]	97
O=C1c2cc(-c3nnc(C(F)F)o3)ccc2CN1c1ccccc1-c1cccc(F)c1 [Example 278, 6-(5-(difluoromethyl)-1,3,4-oxadiazol-2-yl)-2-(3′-fluorobiphenyl-2-yl)-isoindolin-1-one]	99
N#Cc1ccc(-c2ccccc2N2Cc3ccc(-c4nnc(C(F)F)o4)cc3C2=O)cc1 [Example 279, 2′-(6-(5-(difluoromethyl)-1,3,4-oxadiazol-2-yl)-1-oxo-1,3-dihydro-2H-isoindol-2-yl)-biphenyl-4-carbonitrile]	89
CCc1ncccc1-c1ccccc1N1Cc2ccc(-c3nnc(C(F)F)o3)cc2C1=O [Example 280, 6-(5-(difluoromethyl)-1,3,4-oxadiazol-2-yl)-2-(2-(2-ethylpyridin-3-yl)phenyl)-isoindolin-1-one]	99
O=C1c2cc(-c3nnc(C(F)F)o3)ccc2CN1c1ccccc1-c1ccccc1Cl [Example 281, 2-(2′-chlorobiphenyl-2-yl)-6-(5-(difluoromethyl)-1,3,4-oxadiazol-2-yl)isoindolin-1-one]	98
O=C1c2cc(-c3nnc(C(F)F)o3)ccc2CN1c1ccccc1-c1ccc(Cl)cc1 [Example 282, 2-(4′-chlorobiphenyl-2-yl)-6-(5-(difluoromethyl)-1,3,4-oxadiazol-2-yl)isoindolin-1-one]	98
O=C1c2cc(-c3nnc(C(F)F)o3)ccc2CN1c1ccccc1-c1cccc(Cl)c1 [Example 283, 2-(3′-chlorobiphenyl-2-yl)-6-(5-(difluoromethyl)-1,3,4-oxadiazol-2-yl)isoindolin-1-one]	99
O=C1c2cc(-c3nnc(C(F)F)o3)ccc2CN1c1ccccc1-c1cc(F)cc(F)c1 [Example 284, 2-(3′,5′-difluorobiphenyl-2-yl)-6-(5-(difluoromethyl)-1,3,4-oxadiazol-2-yl)isoindolin-1-one]	101
O=C1c2cc(-c3nnc(C(F)F)o3)ccc2CN1c1ccccc1-c1ccc(C2CC2)cc1 [Example 285, 2-(4′-cyclopropylbiphenyl-2-yl)-6-(5-(difluoromethyl)-1,3,4-oxadiazol-2-yl)isoindolin-1-one]	95
O=C1c2cc(-c3nnc(C(F)F)o3)ccc2CN1c1ccccc1-c1cccc(C2CC2)c1 [Example 286, 2-(3′-cyclopropylbiphenyl-2-yl)-6-(5-(difluoromethyl)-1,3,4-oxadiazol-2-yl)isoindolin-1-one]	99
O=C1c2cc(-c3nnc(C(F)F)o3)ccc2CN1c1ccccc1-c1ccc2c(c1)CCO2 [Example 287, 6-(5-(difluoromethyl)-1,3,4-oxadiazol-2-yl)-2-(2-(2,3-dihydro-1-benzofuran-5-yl)phenyl)isoindolin-1-one]	100
O=C1c2cc(-c3nnc(C(F)F)o3)ccc2CN1c1ccccc1-c1cccc2c1CCO2 [Example 288, 6-(5-(difluoromethyl)-1,3,4-oxadiazol-2-yl)-2-(2-(2,3-dihydro-1-benzofuran-4-yl)phenyl)isoindolin-1-one]	102
O=C1c2cc(-c3nnc(C(F)F)o3)ccc2CN1c1ccccc1-c1cccc2c1OCC2 [Example 289, 6-(5-(difluoromethyl)-1,3,4-oxadiazol-2-yl)-2-(2-(2,3-dihydro-1-benzofuran-7-yl)phenyl)isoindolin-1-one]	101
